Results published in publication PMC4853715, “Design, Synthesis and Antitumor Activity of Novel link-bridge and B-Ring Modified Combretastatin A-4 (CA-4) Analogues as Potent Antitubulin Agents” (Scientific Reports, 2016).

Legend:
A549 = test: MTT assay, antiproliferative activity; format: cell-based; conditions: Homo sapiens, 48 h, ± SD
Protocol: (§1) The in vitro anticancer activities of the prepared compounds against HepG2, Hela, MCF-7, A549, HT-29 and SSC-4 cell lines were evaluated as described in the literature. Target tumor cells were grown to log phase in DMEM medium supplemented with 10% fetal bovine serum. After reaching a dilution of 1 × 10^5 cells Ml^−1 with the medium, 100 μL of the obtained cell suspension was added to each well of 96-well culture plates. Subsequently, incubation was performed at 37 °C in 5% CO2 atmosphere for 12 h before the cytotoxicity assessment. Tested samples at preset concentrations were added to 6 wells with CA-4 being employed as a positive reference. After 48 h exposure period, 25 μL of PBS containing 2.5 mg mL^−1 of MTT (Sigma, USA) was added to each well. After 4 h, the medium was replaced by 150 μL DMSO to dissolve the purple formazan crystals produced. The absorbance at 570 nm of each well was measured with Synergy™ 2 Multi-Mode Microplate Reader. Cell viability (%) was calculated using the following equation: cell viability (%) = (Atreatment/Acontrol) × 100%. The data represented the mean of three independent experiments in triplicate and were expressed as means ± SD.

HT-29 = test: MTT assay, antiproliferative activity; format: cell-based; conditions: Homo sapiens; HT-29, MTT, 48 h, ± SD
Protocol: as §1

Hela = test: MTT assay, antiproliferative activity; format: cell-based; conditions: Homo sapiens, 48 h, ± SD
Protocol: as §1

HepG2 = test: MTT assay, antiproliferative activity; format: cell-based; conditions: Homo sapiens, 48 h, ± SD
Protocol: as §1

MCF-7 = test: MTT assay, antiproliferative activity; format: cell-based; conditions: Homo sapiens, MCF7; MCF-7, MTT, 48 h, ± SD
Protocol: as §1

SSC-4 = test: MTT assay, antiproliferative activity; format: cell-based; conditions: Homo sapiens; SSC-4, MTT, 48 h, ± SD
Protocol: as §1

Bovine brain tubulin = test: Effects on tubulin polymerization (turbidimetric assembly); format: biochemical; conditions: 10 μM tubulin, 30 °C, 20 min incubation; read-out: Tubulin inhibition IC50
Protocol: Bovine brain tubulin was purified as described previously. To evaluate the effect of the compounds on tubulin assembly in vitro, compounds of varying concentrations were preincubated with 10 μM tubulin in glutamate buffer at 30 °C and then cooled to 0 °C. After addition of GTP, the mixtures were transferred to 0 °C cuvettes in a recording BioTek Synergy 4 multifunction microplate spectrophotometer and warmed up to 30 °C and the assembly of tubulin was observed turbidimetrically (TU660, USA).

[1] = system: interphase microtubules of A549 cells; test: Confocal microscopy assay of microtubule morphology; format: cell-based, human; conditions: A549, 1.0 μM, 48 h
Protocol: After incubating for 48 h, A549 cells were washed with PBS for three times and fixed with 4% paraformaldehyde for 20 min, permeabilized with cold methanol for another 10 min. After that, the cells were blocked with 5% BSA for 1 h. Subsequently, the cells were washed with PBS, and incubated with anti-tubulin antibody in 3% BSA (1:200 Cytoskeleton, Inc.) overnight at 4 °C. After being washed with PBS for three times, each cover slip was added 200 μL of Cy3-labeled goat anti-mouse IgG (H + L) in 3% BSA (1:500, Cytoskeleton, Inc.) and incubated for 1 h at room temperature. At last, A549 cells was stained with 200 μL of DAPI for 5 min and observed under an confocal microscope (Olympus, USA).

A549 xenograft tumor = test: In vivo anti-tumor activity, A549 xenograft; set-up: species or system BALB/c nude mice; conditions: CA-4P group, 30 mg/kg or 15 mg/kg
Protocol: Mice were subcutaneously inoculated with injections of 5.0 × 10^6 cells/nude mice. After 12–14 days, tumor sizes were determined using micrometer calipers, and then nude mice with similar tumor volume (~100 mm^3, eliminate mice with tumors that are too large or too small) were randomly divided them into four groups (with six nude mice/group). […] Both drugs, as well as the vehicle control, were administered every other day for the entire period of observation.
Male BALB/c nude mice, five weeks old and weighing 18–22 g, were supplied by Shanghai Laboratory Animal Limited Company. The mice were raised in air-conditioned rooms under controlled lighting (12 h light-dark cycle at 24 °C) and were fed with standard laboratory food and water ad libitum. Before injection into the mice, the A549 cells were harvested by trypsinization and washed three times with cold serum-free medium and then injected in a total volume of 0.1 mL using a 1 mL latex-free syringe (BD) within 30 min of harvest. Mice were inoculated subcutaneously with A549 cells (5.0 × 10^6) on their shoulders. […] The control group received 0.9% normal saline. Tumor size was measured once every 2 days in two per-pendicular dimensions with Vernier calipers and converted to tumor volume (TV) using the formula: (ab^2)/2, where a and b refer to the longer and shorter dimensions, respectively. The body weight of the animals was measured twice a week to assess toxicity of the treatments at the same time as the tumor dimension measurement and the mortality was monitored daily. After the treatments for eight weeks, the animals were euthanized by cervical dislocation. This study conformed to the Guide for the Care and Use of Laboratory Animals as published by the US National Institutes of Health and was approved by the Institutional Ethics Review Board of Nanjing University.

[2] = target: colchicine-binding site of tubulin; test: [3H] Colchicine-tubulin binding assay; conditions: 37 °C, 60 min; read-out: IC50, competition with [3H]colchicine binding to tubulin
Protocol: One micromolar radiolabeled colchicine [ring C, Methoxy-^3H] (Perkin-Elmer), 1% DMSO and various concentrations of test compounds in 50 μL G-PEM buffer containing 80 mmol/L PIPES (pH 6.8), 1 mmol/L EGTA, 1 mmol/L MgCl2 and 1 mmol/L GTP, and 5% glycerol were incubated with […] (>99% pure,; Cytoskeleton, Inc.; 0.2 mg/mL) at 37 °C for 60 min. The binding solutions were filtered through a stack of 2 DEAE-cellulose filters and washed twice. The radioactivity in the filtrates was determined by liquid scintillation spectrometry (Perkin-Elmer Wallac). Nonlinear regression was used to analyze the data using GraphPad Prism.

[3] = system: Tubulin isolated from porcine brain tissue; test: Tubulin polymerization assay (kit, absorbance 340 nm); format: biochemical; conditions: 8.0 μM, 37 °C
Protocol: Tubulin polymerization was determined with the tubulin polymerization assay kit (Cytoskeleton, Denver, CO which was purchased from Cytoskeleton, Beyotime, China. Tubulin isolated from porcine brain tissue was used in this commercial kit.) It is based on the principal that light is scattered by microtubules to an extent that is proportional to the concentration of the microtubule polymer. Compounds that interact with tubulin will alter the polymerization of tubulin, and this can be detected using a spectrophotometer. Tubulin polymerization dynamics was monitored through measuring the change of absorbance at 340 nm every 2 min for 30 min at 37 °C on a spectrophotometer (Perkin-Elmer).

[4] = system: polymerized tubulin in A549 cells; test: Flow cytometry of extracellular polymerized tubulin; format: cell-based, human; conditions: A549, 1 μM, 48 h
Protocol: Then, cells were harvested, washed once with PBS and blocked with 1% BSA for 30 min on ice, then were centrifuged (2800 rpm at 4 °C for 5 minutes) to remove supernatant. After that, cells were incubated with β-tubulin antibody (AT819, Beyotime, China) for 1 h on ice and were centrifuged (2800 rpm at 4 °C for 5 minutes) to remove supernatant. Next, cells were incubated with CY5.5-linked anti-rabbit IgG (A7016, Beyotime, China) on ice for 1 h and were also centrifuged (2800 rpm at 4 °C for 5 minutes) to remove supernatant. Finally, cells were then resuspended in PBS and the expression level of polymerized tubulin was analysed by flow cytometry (BD, USA).

CCCn1cc(/C=C\C(=O)c2cc(OC)c(OC)c(OC)c2)c2ccccc21 [Compound 12]
IC50 (A549): 37.9 ± 3.61 µM | IC50 (HT-29): 78.9 ± 3.51 µM | IC50 (Hela): 67.9 ± 4.47 µM | IC50 (HepG2): 53.9 ± 2.81 µM | IC50 (MCF-7): 69.8 ± 5.43 µM | IC50 (SSC-4): 90 ± 9.98 µM | IC50 (Bovine brain tubulin): > 200 µM

CC(=O)O[C@H]1C(=O)[C@@]2(C)[C@H]([C@H](OC(=O)c3ccccc3)[C@]3(O)C[C@H](OC(=O)[C@H](O)[C@@H](NC(=O)c4ccccc4)c4ccccc4)C(C)=C1C3(C)C)[C@]1(OC(C)=O)CO[C@@H]1C[C@@H]2O [paclitaxel]
microtubule morphology [1]: substantial stabilization of microtubules

COc1ccc(/C=C\c2cc(OC)c(OC)c(OC)c2)cc1OP(=O)(O)O [CA-4P, fosbretabulin, reference compound]
tumor growth reduction versus vehicle at end of observation (A549 xenograft tumor; every other day): 39% | average weight of the excised tumors (A549 xenograft tumor; control group 1.802 g): 1.102 g

CCn1cc(/C=C\C(=O)c2cc(OC)c(OC)c(OC)c2)c2ccccc21 [Compound 11]
IC50 (A549): 27.9 ± 6.71 µM | IC50 (HT-29): 49.9 ± 6.98 µM | IC50 (Hela): 34.2 ± 1.19 µM | IC50 (HepG2): 27.8 ± 2.23 µM | IC50 (MCF-7): 45.5 ± 5.67 µM | IC50 (SSC-4): 57.8 ± 4.67 µM | IC50 (Bovine brain tubulin): 125 µM

COc1ccc(/C=C\c2cc(OC)c(OC)c(OC)c2)cc1O [CA-4, combretastatin A-4]
IC50 (A549): 0.13 ± 0.02 µM | IC50 (HT-29): 15.6 ± 0.06 µM | IC50 (Hela): 5.52 ± 0.82 µM | IC50 (HepG2): 0.46 ± 0.07 µM | IC50 (MCF-7): 0.81 ± 0.11 µM | IC50 (SSC-4): 27.2 ± 1.78 µM | IC50 (Bovine brain tubulin): […] | IC50 [2]: 4.96 µM | tubulin polymerization (in words) [3]: nearly completely blocked | microtubule assembly (polymerized tubulin, curve shift versus control) [4]: […] | microtubule morphology [1]: disorganized interphase microtubules

COc1cc(NC(=O)c2cn(Cc3ccccc3)c3ccccc23)cc(OC)c1OC [Compound 19]
IC50 (A549): 2.69 ± 0.4 µM | IC50 (HT-29): 32.7 ± 3.31 µM | IC50 (Hela): 5.74 ± 1.06 µM | IC50 (HepG2): 3.68 ± 0.36 µM | IC50 (MCF-7): 3.61 ± 0.46 µM | IC50 (SSC-4): 29.5 ± 3.42 µM | IC50 (Bovine brain tubulin): 19.9 µM

COc1cc(C(=O)/C=C\c2cn(Cc3ccccc3)c3ccccc23)cc(OC)c1OC [Compound 13]
IC50 (A549): 2.78 ± 0.92 µM | IC50 (HT-29): 34.7 ± 5.34 µM | IC50 (Hela): 4.78 ± 1.43 µM | IC50 (HepG2): 2.98 ± 0.34 µM | IC50 (MCF-7): 4.54 ± 0.96 µM | IC50 (SSC-4): 25.7 ± 2.78 µM | IC50 (Bovine brain tubulin): 24.8 µM

COc1cc(/C=N/NC(=O)c2cn(C)c3ccccc23)cc(OC)c1OC [Compound 4]
IC50 (A549): 0.29 ± 0.04 µM | IC50 (HT-29): 26.7 ± 1.89 µM | IC50 (Hela): 8.45 ± 1.87 µM | IC50 (HepG2): 2.43 ± 0.23 µM | IC50 (MCF-7): 3.21 ± 0.76 µM | IC50 (SSC-4): 43.2 ± 3.98 µM | IC50 (Bovine brain tubulin): 14.8 µM

COc1cc2c(c(OC)c1OC)-c1ccc(OC)c(=O)cc1[C@@H](NC(C)=O)CC2 [colchicine]
microtubule morphology [1]: depolymerization and solubilization

CCn1cc(C(=O)Nc2cc(OC)c(OC)c(OC)c2)c2ccccc21 [Compound 17]
IC50 (A549): 26.5 ± 6.2 µM | IC50 (HT-29): 39.4 ± 3.45 µM | IC50 (Hela): 35.7 ± 2.34 µM | IC50 (HepG2): 28.3 ± 3.33 µM | IC50 (MCF-7): 48.3 ± 6.58 µM | IC50 (SSC-4): 47.2 ± 4.33 µM | IC50 (Bovine brain tubulin): > 200 µM

CCn1cc(C(=O)N/N=C/c2cc(OC)c(OC)c(OC)c2)c2ccccc21 [Compound 5]
IC50 (A549): 1.18 ± 0.11 µM | IC50 (HT-29): 56.8 ± 2.1 µM | IC50 (Hela): 23.8 ± 2.23 µM | IC50 (HepG2): 10.6 ± 1.98 µM | IC50 (MCF-7): 14.2 ± 1.11 µM | IC50 (SSC-4): 55.2 ± 3.48 µM | IC50 (Bovine brain tubulin): 23.4 µM

COc1cc(NC(=O)c2cn(C)c3ccccc23)cc(OC)c1OC [Compound 16]
IC50 (A549): 17.6 ± 1.9 µM | IC50 (HT-29): 46.4 ± 2.83 µM | IC50 (Hela): 26.8 ± 6.81 µM | IC50 (HepG2): 17.5 ± 1.46 µM | IC50 (MCF-7): 27.4 ± 2.41 µM | IC50 (SSC-4): 45.5 ± 2.6 µM | IC50 (Bovine brain tubulin): 46.8 µM

CCCn1cc(C(=O)Nc2cc(OC)c(OC)c(OC)c2)c2ccccc21 [Compound 18]
IC50 (A549): 40.2 ± 4.41 µM | IC50 (HT-29): 82.2 ± 3.7 µM | IC50 (Hela): 77.4 ± 5.78 µM | IC50 (HepG2): 62.8 ± 3.65 µM | IC50 (MCF-7): 59.8 ± 3.43 µM | IC50 (SSC-4): 90.3 ± 6.76 µM | IC50 (Bovine brain tubulin): > 200 µM

CCCn1cc(C(=O)N/N=C/c2cc(OC)c(OC)c(OC)c2)c2ccccc21 [Compound 6]
IC50 (A549): 9.89 ± 1.16 µM | IC50 (HT-29): 70 ± 3.76 µM | IC50 (Hela): 56.9 ± 4.89 µM | IC50 (HepG2): 39 ± 3.23 µM | IC50 (MCF-7): 28.9 ± 3.23 µM | IC50 (SSC-4): 79.9 ± 2.78 µM | IC50 (Bovine brain tubulin): 55.7 µM

COc1cc(C(=O)/C=C\c2cn(C)c3ccccc23)cc(OC)c1OC [Compound 10]
IC50 (A549): 12.1 ± 1.2 µM | IC50 (HT-29): 44.5 ± 2.87 µM | IC50 (Hela): 23.9 ± 5.89 µM | IC50 (HepG2): 19.6 ± 1.98 µM | IC50 (MCF-7): 29.9 ± 3.21 µM | IC50 (SSC-4): 43.2 ± 3.3 µM | IC50 (Bovine brain tubulin): 49.9 µM
